Results taken from patent US8138191B2, “Inhibitor compounds and cancer treatment methods” (Critical Outcome Technologies Inc., priority 2007, dated 2012).
Like-named read-outs stand apart in the source and are kept apart here.

Legend:
[1] = in vitro; details: human
Protocol: (§1) TC7 cells were seeded at 1×10^5 cells/cm^2 on porous polycarbonate membrane in 96-well Multiscreen™ plates (Millipore). Cells were fed every 2 to 3 days and the day before the permeability assay. Permeability assays are performed with the cells at days 13-25 post-seeding. The assay directions included apical to basolateral (A-B) and basolateral to apical (B-A). The working solution for COTI-2 was prepared at 10 μM in HBSS-MES (5 mM), pH 6.5, or HBSS-HEPES (5 mM), pH 7.4, from a 1 mM DMSO stock solution. The working solution was then centrifuged and the supernatant was added to the apical or basolateral side with a final DMSO concentration of 1%. The assay was incubated for 60 or 40 min with gentle shaking at 37° C. The sampling scheme consisted of donor time zero, donor time 60 or 40 min, and receiver time 60 or 40 min. Samples were analyzed via (RP)HPLC-MS/MS using selected reaction monitoring (SRM). […] The cell monolayer integrity was confirmed by fluorescein permeability assessment (in the A-B direction at pH 7.4 on both sides with 1 h incubation) after the permeability assay with COTI-2. The cell monolayer that has a fluorescein permeability of less than 0.5×10^−6 cm/s was considered intact. The apparent permeability coefficient (Papp) of COTI-2 in the […] and the percent recovery of the compounds were calculated.

[2] = system: TC7 (human intestinal epithelial cells); test: in vitro
Protocol: as §1

[3] = in vivo; details: both, rat, in vivo
Description: Pharmacokinetic studies in animal models provide valuable information that enables prediction of metabolism in humans. There are a large variety of animal models that allow for the pharmacokinetic evaluation of compounds by providing information on serum, plasma, and tissue levels. […] As a result, it is important to keep this phenomenon in mind during extrapolations from animal to human metabolism. An initial pharmacokinetic assessment of COTI-2, administered both intravenously and orally, in its parent formulation and as both an oxalate and tartrate salt were evaluated in rats.
A single oral or IV dose of the COTI-2 free-base or the aforementioned salt forms was administered to groups of male and female rats and blood samples collected and processed at several time-points post-treatment.

[4] = B-A Permeability (TC7, pH 7.4/7.4) + verapamil; assay type: in vitro ADME; details: human, Caco-2, pH 7.4, with verapamil (concentration not stated), 1.0E−05 M
[5] = system: DMS114 cells; test: AKT/AKT2 siRNA then COTI-2, cell viability by MTT assay, DMS114; assay type: cell-based, human; details: DMS114, 500 nM COTI-2
Protocol: (§2) Cell cultures were maintained under regular tissue culture conditions and passaged 1-2 times a week as recommended by ATCC. For siRNA experiments the manufacturer's conditions for growth and transfection were followed. All siRNA reagents for AKT and AKT2 transfections were obtained from Cell Signaling.
(§3) Cells were treated for 48 h with 0-100 ng of AKT or AKT2 siRNA before incubation with COTI-2 at various concentrations (0-500 nM). Following incubation for 48 h, cell viability was determined by MTT assay.

[6] = system: AN3-CA human endometrial tumor xenograft; details: for Maximum weight loss (%) (Day #): Day 21; for CS (Complete Shrinkage) / Deaths: N 10; for Mean days of Survival (Day ± SEM): end point of 2000 mg
Protocol: Female athymic nude mice (CrTac:NCR-Foxn1^nu) were supplied by Taconic (Germantown, N.Y.).
The dosing schedule for COTI-2 and the vehicle control was three times weekly until study end. […] When the mean tumor weight of each mouse reached an approximate end-point of 2000 mg, mice were sacrificed with regulated CO2.
The mean tumor shrinkage of each group was calculated and reported.

[7] = system: SHP77 cells; test: AKT/AKT2 siRNA then COTI-2, cell viability by MTT assay, SHP77; assay type: cell-based, human; details: SHP 77
Protocol: as §2, §3

[8] = system: DMS114 and SHP77 cells; test: Western blotting of AKT pSer473 and AKT phospho-protein targets; assay type: cell-based, human; details: for mTOR phospho-Ser 2448: 300 nM, time course
Protocol: Routine laboratory methods were employed for the production of cellular lysates, protein quantification, SDS-PAGE and western blotting. All antibodies were obtained from Cell Signaling and Abcam. To determine total AKT & AKT2 in DMS114 cells, 5×10^4 cells were incubated for 48 h with 10-100 ng of AKT2 siRNA or a scrambled control oligonucleotide. Cells were lysed and 50 μg of protein was separated by SDS-PAGE and blotted with antibody to total AKT or AKT2.
The phospho-AKT status at Ser473 was determined in the presence of COTI-2 utilizing western blotting. […] The inhibition of AKT phosphorylation at Ser473 correlates with the reduction in the phosphorylation of GSK-3α/β (pSer21/9), which is a downstream target of activated phospho-AKT. […] The complete time course of the AKT phospho-Ser473 status in DMS114 and SHP77 cells during incubation with COTI-2 is documented in FIG. 39.
A complex relationship exists between Raptor- and Rictor-containing mTor complexes mTORC1 and mTORC2, respectively, and AKT. mTORC2 activates AKT by Ser473 phosphorylation; in turn, activated AKT phosphorylates TSC2, which prevents its interaction with Rheb and thus the hydrolysis of GTP associated with Rheb. As a result, Rheb-GTP activates mTOR by phosphorylation on Ser2448. […] The results shown in FIGS. 40-45 agree with this hypothesis. […] Phosphorylation of the PTEN C terminal was reported to stabilize PTEN and protect against ubiquitin-mediated degradation (Nat Rev Cancer, 6: 184-192). One implication of this observation is that COTI-2 may activate PTEN and thus, by reducing the amount of PIP3, contribute to the inhibition of AKT activity.

[9] = Caco-2, pH 7.4, Permeability Mean
[10] = COTI-2 12.5 mg/kg IV 3X Weekly to end
[11] = COTI-2 50.0 mg/kg IV 3X Weekly to end

## S=C(N/N=C1/CCCc2cccnc21)N1CCN(c2ccccn2)CC1 [COTI-2]
[1]; Caco-2
  efflux ratio at 10 µM: ~4.5
[1]; Caco-2, A-B permeability (Papp)
  Papp A→B at 10 µM: < 0.3 ×10⁻⁶ cm/s
[1]; Caco-2, mean recovery
  recovery at 10 µM: 22%
[1]; [9]
  Papp A→B at 10 µM: < 0.3 ×10⁻⁶ cm/s
  Papp B→A at 10 µM: 1.4 ×10⁻⁶ cm/s
[2]; Caco-2
  Pgp substrate assessment: not a substrate of Pgp
[2]; Caco-2, pH 7.4
  Flags: BLQ
[3]
  bioavailability: 17.7%
[3]; po
  Tmax: 4 h
  clearance (CL) from plasma, fold higher than the oxalate and tartrate formulations: approximately 2 fold
  rate of absorption (Ka), fold higher than the other formulations: approximately 3 fold
[4]; 1st determination, read-out: Percent Recovery 1st
  recovery at 10 µM: 49%
[4]; 2nd determination, read-out: Percent Recovery 2nd
  recovery at 10 µM: 46%
[4]; mean, read-out: Percent Recovery Mean
  recovery at 10 µM: 47%
[5]
  cytotoxicity after AKT2 knock-down by siRNA: unable to exert additional significant cytotoxicity
[6]; [10]
  Day 13 Mean tumor weight: 1,828.9 ± 265.8 mg
  Maximum weight loss (%) (Day #): 8.2% (Day 21)
  CS (Complete Shrinkage): 0
  Deaths: 0
  Mean days of Survival (Day ± SEM): 16.7 ± 0.8 days
[6]; [11]
  Day 13 Mean tumor weight: 1,542.7 ± 217.2 mg
  Day 13 TGI: 7.8%
  Maximum weight loss (%) (Day #): 5.4% (Day 21)
  CS (Complete Shrinkage): 0
  Deaths: 1
  Mean days of Survival (Day ± SEM): 17.2 ± 0.7 days
[6]; COTI-2 […] IV 3X Weekly to end
  Mean days of Survival (Day ± SEM): 15.8 ± 0.9 days
[6]; mouse, in vivo, 50 mg/kg
  toxicity observations: lethargy and hypoactivity
[6]; single agent, IV three times weekly
  tumor weights or survival compared to control: did not show any statistical differences in tumor weights or survival
[7]
  cell death with total AKT or AKT2 siRNA, presence vs absence of COTI-2: no significant difference in cell death
[8]; 250 nM
  phosphorylation of GSK-3α/β (pSer21/9): reduction
[8]; 250 nM, 2 h
  AKT Ser473 phosphorylation: profound inhibition
[8]; DMS114 cells
  PTEN phospho-Ser380: strong but transient increase
  mTOR phospho-Ser 2448: initial decrease in phospho-Ser 2448 at 2 hrs followed by a more sustained decrease at 24 and 48 hrs
[8]; SHP77 cells
  mTOR phospho-Ser 2448: only the decrease at 2 hrs of incubation was observed
